Experimental data from patent US20200155731A1, “DEVICE AND METHOD FOR PROMOTING RAPID STRUT COVERAGE AND VASCULAR ENDOTHELIAL COVERAGE” (priority 2017, published 2020).

How the values were obtained:
[1] = test system: human VSMC; experiment: VSMC proliferation in bottles containing human VSMC, gene silencers vehicle lentivirus and plasmid; type: cell-based; details: Experiment 2; lentivirus vehicle for siRNA; FIG. 1
Method: (§1) Therefore, Experiment 2 was carried out with the following groups: lentivirus+gene silencer TNFRSF11B-siRNA, lentivirus+gene silencer NCF4-siRNA, full control (no vehicle and no drug), lentivirus+gene silencer SM22a-siRNA+glyceraldehyde 3-phosphate dehydrogenase (GAPDH) (vehicle control 1), lentivirus+gene silencer MYH11-siRNA+GAPDH (vehicle control 2), sirolimus (drug control 1), and paclitaxel (drug control 2).
(§2) TNFRSF11B-siRNA and NCF4-siRNA are gene silencers of the TNFRSF11B and NCF4 genes, respectively. The delivery system of gene silencers was developed by inserting the respective gene silencers in a plasmid which is carried by a lentivirus. Lentivirus particles are intracellular transduction-ready viruses containing plasmids with gene silencers. After transduction, cells express permanently gene silencers. The density of cell cultures 24 hours before transfection was 2×10^5 cells/10 cm2 in culture medium. […]
(§3) Two control groups containing a lentivirus and a gene silencer of smooth muscle protein 22α (SM22α) or smooth muscle myosin heavy chain (MYH11) were used to assess the vehicle. […] Thus, said two gene silencers, SM22α-siRNA and MYH11-siRNA, were marked with glyceraldehyde 3-phosphate dehydrogenase (GAPDH), called bioconjugates, to ensure by means of fluorescence microscopy that the gene silencers effectively entered VSMC and EC. […]

[2] = test system: human vascular EC; experiment: EC proliferation in bottles containing human EC, gene silencers vehicle lentivirus and plasmid; type: cell-based; details: Experiment 2; lentivirus vehicle for siRNA; FIG. 2
Method: as §1, §2, §3

[3] = test system: human VSMC; experiment: VSMC proliferation in bottles containing human VSMC, vehicle nanoparticles (DSPE-PEG); type: cell-based
Text: […], 2 distearoyl-sn-glycero-3-phosphoethanolamine-Nmethxy (polyethyleneglycol)-2000 (DSPE-PEG) as a drug and gene silencer carrying vehicle instead of lentiviruses and plasmids which were used in the previous experiments. That being so, 8 groups were included for both assessment of nanoparticles as a vehicle and final confirmation of the previous results: control (nanoparticles only), MYH11-siRNA in nanoparticles, CNN1-siRNA in nanoparticles, sirolimus in nanoparticles, paclitaxel in nanoparticles, TNFRSF11B-siRNA in nanoparticles, NCF4-siRNA in nanoparticles, and MYL9-siRNA+GAPDH in nanoparticles.
(§4) The groups of sirolimus in nanoparticles and paclitaxel in nanoparticles were included to compare the efficacy in inhibiting VSMC proliferation. The groups of NFRSF11B-siRNA in nanoparticles and NCF4-siRNA in nanoparticles were tested again with a different vehicle for final confirmation of the negative results. The group of MYL9-siRNA+GAPDH in nanoparticles was studied to evaluate the vehicle efficacy, that is, to ensure that gene silencers would enter VSMC and EC using nanoparticles as a vehicle. […] MYL9-siRNA gene silencer was marked with GAPDH for later verification of its transfection into the cells through fluorescence microscopy. Finally, pure nanoparticles were used as a vehicle control, that is, with neither drug nor gene silencer. […]

[4] = test system: human EC; experiment: EC proliferation in bottles containing human EC, vehicle nanoparticles (DSPE-PEG); type: cell-based; details: Experiment 5, control nanoparticles only, FIG. 7
Method: Experiment 5 was carried out by using nanoparticles of 1, 2 distearoyl-sn-glycero-3-phosphoethanolamine-Nmethxy (polyethyleneglycol)-2000 (DSPE-PEG) as a drug and gene silencer carrying vehicle instead of lentiviruses and plasmids which were used in the previous experiments. That being so, 8 groups were included for both assessment of nanoparticles as a vehicle and final confirmation of the previous results: control (nanoparticles only), MYH11-siRNA in nanoparticles, CNN1-siRNA in nanoparticles, sirolimus in nanoparticles, paclitaxel in nanoparticles, TNFRSF11B-siRNA in nanoparticles, NCF4-siRNA in nanoparticles, and MYL9-siRNA+GAPDH in nanoparticles.
as §4, with “microscopy.” for “microscopy. Finally, pure nanoparticles were used as a vehicle control, that is, with neither drug nor gene silencer.”

[5] = test system: swine coronary arteries; experiment: In vivo study in swine: stent deployment in the coronary arteries, intravascular ultrasound follow-up; parameters: species or system Large White swine
Text: Experiment 6 was an in vivo study in swine comparing MYH11-siRNA-eluting stent and CNN1-siRNA-eluting stent with bare metal stent and sirolimus-eluting stent.
Eighteen commercially available bare metal stents 2.75×15 mm were covered with MYH11-siRNA in nanoparticles (9 stents) or CNN1-siRNA in nanoparticles (9 stents) using a spray nozzle machine to create an abluminal cover in order to deliver the gene silencers locally in the inner surface of the vessel.
The hybrid lipid-polymer nanoparticles loaded with gene silencers (siRNA) were prepared by the nanoprecipitation method. The aqueous phase consisted of the gene silencer solubilized in 10 mL of water Milli Q under stirring and at a bath temperature of 30° C. The organic phase containing a lipid-cationic compound DSPE-PEG-NH2 (1,2-distearoyl-sn-glycero-3-phosphoethanolamine-N-[amino(polyethyleneglycol)-2000] and the PLGA polymer was then injected into the aqueous phase using a 20 G needle, the suspension being kept under moderate stirring for 5 minutes and then concentrated to a final volume of 10 mL in a rotatory evaporator to eliminate the organic solvent and adjust the final concentration. MYH11-siRNA and CNN1-siRNA concentrations ranging from 10 μg/ml to 100 μg/ml were tested.
After covering the abluminal surface of the 18 stents with MYH11-siRNA in nanoparticles (9 stents) or CNN1-siRNA in nanoparticles (9 stents), the stents were left to dry during 60 minutes, packaged in DuPont Tyvek™ and then sterilized with ethylene oxide (EtO) at 50 C.
Nine Large White swine were submitted to stent deployment in the coronary arteries, 1 stent being deployed in the left anterior descendent (LAD), 2 stents in the circumflex (CX) and 1 stent in the right coronary artery (RCA). The stents were deployed in a diameter ratio of 1.1 in relation to the coronary artery diameter, that is, with a mild oversize, in order to stimulate a similar inflammatory reaction that causes in-stent restenosis, to evaluate the efficacy of the gene silencers in controlling in-stent neointimal hyperplasia in a in vivo model. This oversized stent deployment protocol was previously validated (Lowe H C, Schwartz R S, Mac Neill B D, Jang I K, Hayase M, Rogers C, et al. The porcine coronary model of in-stent restenosis: Current status in the era of drug-eluting stents. Catheter Cardiovasclnterv. 2003:60:515-23.)
The prolonged time of stent re-endothelialization is the critical point of the current commercially available drug-eluting stents. So sirolimus and analogues as paclitaxel decrease the proliferation of vascular smooth muscle cells preventing in-stent neointimal hyperplasia, as well as suppress the proliferation of endothelial cells prolonging the time of stent re-endothelialization. […] Therefore, in order to evaluate the time of stent re-endothelialization, angiographic and intravascular ultrasound follow-up were scheduled at 30, 90 and 180 days after stent deployment.
The intravascular ultrasound analysis was performed tracing 31 frames for each stent with 0.5 mm apart each frame from the distal stent border to the proximal stent border. The data were analysed using one-way ANOVA with Bonferroni post hoc test.
The data of intravascular ultrasound in the index procedure as well as the results regarding in-stent neointimal proliferation at 30, 90 and 180 days after stent deployment are shown in table 1, while the comparative data of intravascular ultrasound regarding stent re-endothelialization at 30, 90 and 180 days after stent deployment are shown in table 2.

[6] = 180 days after stent deployment
[7] = intravascular ultrasound, follow-up (time not specified)

| Compound | VSMC cell proliferation as compared to the full control group [1] | EC cell proliferation in relation to the full control group [2] | inhibition of VSMC proliferation in comparison with the control ([3]; Experiment 5, control nanoparticles only, FIG. 6) | EC proliferation compared to the control group [4] | human VSMC proliferation ([3]; Experiment 7, FIG. 8) | Obstruction: average of percentual obstruction in the whole stent length ([5]; 30 days after stent deployment) | re-endothelialization (stent struts coverage) from intravascular ultrasound ([5]; 30 days after stent deployment) | Obstruction: average of percentual obstruction in the whole stent length ([5]; 90 days after stent deployment) | re-endothelialization (stent struts coverage) from intravascular ultrasound ([5]; 90 days after stent deployment) | Obstruction: average of percentual obstruction in the whole stent length [5, 6] | re-endothelialization (stent struts coverage) from intravascular ultrasound [5, 6] | LLL: late lumen loss ([5]; intravascular ultrasound, follow-up) | MLA (minimal luminal area) follow-up [5, 7] | MLD (minimal luminal diameter) follow-up [5, 7] |
| --- | --- | --- | --- | --- | --- | --- | --- | --- | --- | --- | --- | --- | --- | --- |
| CC(=O)O[C@H]1C(=O)[C@@]2(C)[C@H]([C@H](OC(=O)c3ccccc3)[C@]3(O)C[C@H](OC(=O)[C@H](O)[C@@H](NC(=O)c4ccccc4)c4ccccc4)C(C)=C1C3(C)C)[C@]1(OC(C)=O)CO[C@@H]1C[C@@H]2O [paclitaxel] | statistically significant inhibition | statistically significant inhibition | significant inhibition | statistically significant inhibition |  |  |  |  |  |  |  |  |  |  |
| CO[C@H]1C[C@@H]2CC[C@@H](C)[C@@](O)(O2)C(=O)C(=O)N2CCCC[C@H]2C(=O)O[C@H]([C@H](C)C[C@@H]2CC[C@@H](O)[C@H](OC)C2)CC(=O)[C@H](C)/C=C(\C)[C@@H](O)[C@@H](OC)C(=O)[C@H](C)C[C@H](C)/C=C/C=C/C=C/1C [sirolimus] |  |  |  |  | 19% | 11.4 ± 2.2% | 48 ± 3.3% | 12.3 ± 2.1% | 89 ± 3.8% | 13.8 ± 2.4% b | 100% | 0.33 ± 0.12 mm | 6.21 ± 0.16 mm^2 b | 2.68 ± 0.13 mm |
